Assay results from ChEMBL document CHEMBL5543084, “Development of cannabidiol derivatives as potent broad-spectrum antibacterial agents with membrane-disruptive mechanism” (Eur J Med Chem, 2024).
Converted amounts (≈) assume the structure as drawn. The source made the active and inactive calls. The rule behind the calls is not given here.

Legend:
[1] = system: Lipopolysaccharide (LPS); test: Displacement of BODIPY-TR-cadaverine from Escherichia coli lipopolysaccharide (LPS) assessed as increase in fluorescence intensity by fluorescence spectrophotometric analysis; assay type: subcellular
[2] = Cytotoxicity against mouse fibroblast NCTC clone 929 cells assessed as viable cells at 3.125 microg/ml incubated for 24 hrs by CCK-8 assay; assay type: toxicity, cell-based; conditions: NCTC clone 929 (L929) fibroblast cells, at 3.125 µg/mL, read-out: Activity
[3] = system: Escherichia coli; test: (§1) Bactericidal activity against Escherichia coli ATCC 25922 assessed as change in metabolic stress associated gene expression by measuring down-regulation of gale (DX983_RS06370) gene expression at 4 times of MIC concentration measured after 90 mins incubation by RNA sequencing (RNA-seq) study; assay type: functional, organism-based
[4] = system: Escherichia coli; test: Bactericidal activity against Escherichia coli ATCC 25922 assessed as down-regulation of galactose metabolic process (GO:0006012) at 4 times of MIC concentration measured after 90 mins incubation by RNA sequencing (RNA-seq) study; assay type: functional, organism-based
[5] = system: Escherichia coli; test: as §1, with “cell death” for “metabolic stress”, “UDP-glucose 4-epimerase (galE, D1792_RS06370)” for “gale (DX983_RS06370)”; assay type: functional, organism-based
[6] = system: Lipoteichoic acid; test: Displacement of BODIPY-TR-cadaverine from Bacillus subtilis lipoteichoic acid (LTA) assessed as increase in fluorescence intensity at 1 times MIC measured after 30 mins by fluorescence spectrophotometric analysis
[7] = Toxicity in C57BL6 mouse assessed as signs of toxicity treated in eyeballs 4 times in a day for 3 consecutive days; conditions: in vivo, topical_or_ocular
[8] = system: Escherichia coli; test: as §1, with “cell death” for “metabolic stress”, “the inner membrane protein-coding gene (yqiJ, D1792_RS11855)” for “gale (DX983_RS06370)”; assay type: functional, organism-based
[9] = system: Escherichia coli; test: Bactericidal activity against Escherichia coli ATCC 25922 assessed as down regulation of phenylalanine metabolism gene expression at 4 times of MIC concentration measured after 90 mins incubation by RNA sequencing (RNA-seq) study; assay type: functional, organism-based
[10] = system: Staphylococcus aureus; test: Bactericidal activity against methicillin-resistant Staphylococcus aureus NCTC 10442 assessed as bacterial reduction at 8 time of MIC concentration incubated for 0.5 hrs by time-kill assay; assay type: functional
[11] = system: Cell membrane; test: Induction of outer membrane permeabilization in Pseudomonas aeruginosa ATCC 9027 assessed as increase in fluorescence intensity at 1 to 8 times MIC concentration by NPN-dye based fluorescence analysis; assay type: cell membranes
[12] = system: Escherichia coli; test: Bactericidal activity against Escherichia coli ATCC 25922 assessed as down regulation of benzoate degradation gene expression at 4 times of MIC concentration measured after 90 mins incubation by RNA sequencing (RNA-seq) study; assay type: functional, organism-based
[13] = Cytotoxicity against human HepG2 cells assessed as viable cells at […] microg/ml incubated for 24 hrs by CCK-8 assay; assay type: toxicity, cell-based; conditions: dose 1.56 µg/ml, read-out: Activity
[14] = system: Staphylococcus aureus; test: Antibacterial activity against methicillin-resistant Staphylococcus aureus NCTC 10442 assessed as inhibition of bacterial growth incubated for 24 hrs in presence of 20 uM Fe3+ by broth dilution method; assay type: functional
[15] = system: Escherichia coli; test: Antibacterial activity against Escherichia coli ATCC 25922 assessed as inhibition of bacterial growth incubated for 24 hrs in presence of 2.5 mM Ca2+ by broth dilution method; assay type: functional
[16] = system: Escherichia coli; test: Bactericidal activity against Escherichia coli ATCC 25922 assessed as change in xenobiotics biodegradation and metabolism gene expression at 4 times of MIC concentration measured after 90 mins incubation by RNA sequencing (RNA-seq) study; assay type: functional, organism-based
[17] = system: Cell membrane; test: Induction of cytoplasmic membrane permeabilization in Pseudomonas aeruginosa ATCC 9027 assessed as disruption of cell membrane integrity measured upto 60 mins by measuring increase in fluorescence intensity at 1 to 8 times of MIC concentration by SYTOX green dye based fluorescence analysis; assay type: cell membranes
[18] = system: Staphylococcus aureus; test: Antibacterial activity against Staphylococcus aureus ATCC 29213 assessed as inhibition of bacterial growth incubated for 24 hrs in presence of 4.5 mM K+ by broth dilution method; assay type: functional
[19] = system: Staphylococcus aureus; test: Bactericidal activity against methicillin-resistant Staphylococcus aureus NCTC 10442 assessed as bacterial reduction at 4 time of MIC concentration incubated for 2 hrs by time-kill assay; assay type: functional
[20] = system: Staphylococcus aureus; test: (§2) Bactericidal activity against methicillin-resistant Staphylococcus aureus NCTC 10442 assessed as down regulation of other glycan degradation gene expression at 4 times of MIC concentration measured after 90 mins incubation by RNA sequencing (RNA-seq) study; assay type: functional, organism-based
[21] = system: Klebsiella pneumoniae; test: Antibacterial activity against Klebsiella pneumoniae ATCC 14581 assessed as inhibition of bacterial growth incubated for 24 hrs by broth dilution method; assay type: functional
[22] = system: Staphylococcus aureus; test: as §2, with “change in cell death associated gene expression by measuring down-regulation” for “down regulation”, “quorum sensing gene DX983_RS05700” for “other glycan degradation”; assay type: functional, organism-based
[23] = system: Pseudomonas aeruginosa; test: In vivo antibacterial activity against Pseudomonas aeruginosa ATCC 9027 infected C57BL6 mouse corneal infection model assessed as reduction in bacterial burden at 3 mg/ml, TOP 4 times in a day for 2 consecutive days; assay type: functional; conditions: time 2 day
[24] = system: Escherichia coli; test: Bactericidal activity against Escherichia coli ATCC 25922 assessed as change in amino acid metabolism gene expression at 4 times of MIC concentration measured after 90 mins incubation by RNA sequencing (RNA-seq) study; assay type: functional, organism-based
[25] = system: Escherichia coli; test: Bactericidal activity against Escherichia coli ATCC 25922 assessed as bacterial reduction at 4 time of MIC concentration incubated for 2 hrs by time-kill assay; assay type: functional
[26] = system: Cell membrane; test: Induction of cytoplasmic membrane permeabilization in Escherichia coli ATCC 25922 assessed as disruption of cell membrane integrity measured upto 60 mins by measuring increase in fluorescence intensity at 1 to 8 times of MIC concentration by SYTOX green dye based fluorescence analysis; assay type: cell membranes
[27] = system: Staphylococcus aureus; test: Antibacterial activity against methicillin-resistant Staphylococcus aureus NCTC 10442 assessed as inhibition of bacterial growth incubated for 24 hrs in presence of 20 uM Fe2+ by broth dilution method; assay type: functional
[28] = system: Staphylococcus aureus; test: Bactericidal activity against methicillin-resistant Staphylococcus aureus NCTC 10442 assessed as down-regulation of biological processes related gene expression by measuring pyrimidine ribonucleoside monophosphate metabolic (GO:0009173) at 4 times of MIC concentration measured after 90 mins incubation by RNA sequencing (RNA-seq) study; assay type: functional, organism-based
[29] = system: Klebsiella pneumoniae; test: Antibacterial activity against Klebsiella pneumoniae ATCC 10031 assessed as inhibition of bacterial growth incubated for 24 hrs in presence of 4.5 mM K+ by broth dilution method; assay type: functional
[30] = system: Staphylococcus aureus; test: Antibacterial activity against Staphylococcus aureus ATCC 29213 assessed as inhibition of bacterial growth incubated for 24 hrs in presence of 1 mM Mg2+ by broth dilution method; assay type: functional
[31] = system: Klebsiella pneumoniae; test: Antibacterial activity against Klebsiella pneumoniae ATCC 10031 assessed as inhibition of bacterial growth incubated for 24 hrs in presence of 2.5 mM Ca2+ by broth dilution method; assay type: functional
[32] = system: Escherichia coli; test: as §1, with “cell death” for “metabolic stress”, “outer membrane lipoprotein-coding gene (slp, D1792_ RS14130; porin, D1792_RS05555)” for “gale (DX983_RS06370)”; assay type: functional, organism-based
[33] = system: Escherichia coli; test: Antibacterial activity against Escherichia coli ATCC 25922 assessed as inhibition of bacterial growth incubated for 24 hrs in presence of 1 mM Mg2+ by broth dilution method; assay type: functional

With C=C(C)[C@@H]1CCC(C)=C[C@H]1c1c(OCCCNC(=N)N)cc(CCCCC)cc1OCCCNC(=N)N the Activity [1] was “Dose-Dependent Effect”, the viability at 24 h, 3.125 microg/ml [2] was 92.3% and the Activity [3] was “Active”. For the same molecule, the Activity [4] was “Active”, the Activity [5] was “Active” and the Activity [6] was 11.2%. The Activity [7] was “Non-Toxic”, the Activity [8] was “Active” and the Activity [9] was “Active”. The Activity [10] was 3 log10FFU/ml, the Activity [11] was “Dose-Dependent Effect” and the Activity [12] was “Active”. It also gave a viability at 24 h, 1.56 microg/ml [13] of 113%, an MIC [14] of 0.39 µg/mL and an MIC [15] of 3.12 µg/mL. For the same molecule, the Activity [16] was “Active”, the Activity [17] was “Active” and the MIC [18] was 0.78 µg/mL. The Activity [19] was 3 log10FFU/ml, the Activity [20] was “Active” and the MIC [21] was 1.56 µg/mL (≈ 3.04 µM). For the same molecule, the Activity [22] was “Active”, the Activity [23] was 6.41 log10FFU/ml and the Activity [24] was “Active”. For the same molecule, the Activity [25] was 5.52 log10FFU/ml, the Activity [26] was “Active” and the MIC [27] was 0.39 µg/mL. The Activity [28] was “Active”, the MIC [29] was 6.25 µg/mL and the MIC [30] was 1.56 µg/mL. For the same molecule, the MIC [31] was 6.25 µg/mL, the Activity [32] was “Active” and the MIC [33] was 1.56 µg/mL.
